Patent US20130028920A1, “STABILIZED ANTIBODY PREPARATIONS AND USES THEREOF” (UNIVERSITE DE GENEVE, priority 2010, published 2013)
Entries after “also recorded” stand apart in the source; their conditions may differ.

Tests used:
Format in all cases: physicochemical
[1] = tested on: bevacizumab; test: Stability of dialyzed, pre-stressed bevacizumab alone and with AMP, percentage of monomers by AFFF-MALS
Experimental: A 50 mM phosphate buffer pH 7.0 was used. The buffer choice was based on a pH range and buffer capacity that is physiologically tolerated and that is acceptable for the stability of antibodies. […] Samples were analyzed directly after preparation (t0) and after 7, 14 and 28 days. The aggregation state of the antibodies was measured by multi-angle light scattering (MALS) after separation by asymmetrical flow field-flow fractionation (AFFF). […] Data were collected and analysed with the Astra software (Wyatt Technology Europe GmbH, Dernbach, Germany). The aggregation state was expressed as the percentage of monomers versus time.

[2] = tested on: Avastin®; test: Effect of AMP on the unmodified commercial bevacizumab formulation (Avastin®), stability by AFFF-MALS; conditions: 40° C., 28 days, p<0.05
Experimental: (§1) All samples were stored at 40° C. during 28 days. Samples were analyzed directly after preparation (t0) and after 7, 14 and 28 days. The aggregation state of the antibodies was measured by multi-angle light scattering (MALS) after separation by asymmetrical flow field-flow fractionation (AFFF). […] Data were collected and analysed with the Astra software (Wyatt Technology Europe GmbH, Dernbach, Germany). The aggregation state was expressed as the percentage of monomers versus time.
All samples are stored at a temperature of 40° C. for 28 days and the stability is measured as described in Example 3 and compared to a sample of Avastin® alone stored under the same conditions.

[3] = tested on: Avastin®; test: Stability of pre-stressed Avastin® with ATP, GMP or sucrose phosphate, by AFFF-MALS; conditions: for stabilization of Avastin® across molar ratios: Avastin®:compound 1:1, 1:10 and 1:100, pre-stressed, PBS pH 7.0, 40° C., up to 28 days; for Short-term effects on the antibody, compared among ATP, GMP and sucrose phosphate: short term after addition
Experimental: as §1, with “Samples were analyzed directly after preparation (t0) and after 7, 14 and 28 days.” left out
After pre-stressing, Avastin® samples were combined with either ATP, GMP or sucrose phosphate at three Avastin®: compound of formula (I) molar ratios (1:1, 1:10 and 1:100). All samples are stored at a temperature of 40° C. for 28 days and stability is measured as described in Example 3 and compared to a sample of Avastin® alone stored under the same conditions. For GMP, a dilution of GMP was made in PBS pH 7.0 and pH was adjusted to 7.0 before the combination with Avastin® to prevent the risk of higher order aggregates caused by the addition of NaOH directly to the antibody formulation.

[4] = molar ratio 1:1, t1 (1 day at 40° C.)
[5] = molar ratio 1:10, t1 (1 day at 40° C.)
[6] = molar ratio 1:100, t1 (1 day at 40° C.)

Row | percentage of monomers ([1]; formulations of bevacizumab with AMP (1:153 by context), 14 days at 40° C., pH 7.0, n=3) | percentage of monomers ([1]; molar ratio bevacizumab:AMP 1:1.53, 14 days at 40° C., pH 7.0) | percentage of monomers ([1]; molar ratio bevacizumab:AMP 1:1.53, 28 days at 40° C., pH 7.0, n=3) | percentage of monomers ([1]; molar ratio bevacizumab:AMP 1:15.3, 14 days at 40° C., pH 7.0) | percentage of monomers ([1]; molar ratio bevacizumab:AMP 1:15.3, 28 days at 40° C., pH 7.0, n=3) | percentage of monomers ([1]; molar ratio bevacizumab:AMP 1:153, 28 days at 40° C., pH 7, n=3) | stabilizing effect versus Avastin® alone [3, 4] | stabilizing effect versus Avastin® alone [3, 5] | stabilizing properties, compared among ATP, GMP and sucrose phosphate ([3]; after 28 days of storage at 40° C.) | Compound | stabilization of the antibody (increase in monomers) versus Avastin® alone ([2]; Avastin®:AMP 1:10) | stabilization of the antibody (increase in monomers) versus Avastin® alone ([2]; Avastin®:AMP 1:100) | stabilization of Avastin® across molar ratios [3] | aggregation breaker strength in experiments ([3]; compared with AMP) | stabilizing effect versus Avastin® alone [3, 6] | stabilizing effect versus Avastin® alone ([3]; molar ratio 1:100, t28 (28 days at 40° C.)) | Short-term effects on the antibody, compared among ATP, GMP and sucrose phosphate [3]
1 | higher than 94% | higher than 80% | higher than 76% | higher than 80% | higher than 76% | around 90% | – | – | – | Nc1ncnc2c1ncn2[C@@H]1O[C@H](COP(=O)(O)O)[C@@H](O)[C@H]1O [AMP, adenosine 5′-monophosphate] | significant stabilization is observed at t1, t14 and t28 | such a stabilization is observed only at longer incubation times (t14 and t28) | – | – | – | – | –
2 | – | – | – | – | – | – | destabilizing | destabilizing | most distinct stabilizing properties | Nc1nc2c(ncn2[C@@H]2O[C@H](COP(=O)(O)O)[C@@H](O)[C@H]2O)c(=O)[nH]1 [GMP, guanosine 5′-monophosphate] | – | – | concentration dependent stabilization | – | shows an ability to stabilize the antibody | – | –
3 | – | – | – | – | – | – | stabilizing effect is observed | stabilizing effect is observed | – | sucrose phosphate | – | – | concentration-dependent stabilization; also recorded: concentration-dependent stabilizing effect continues up to 28 days | – | stabilizing effect is observed | – | most pronounced

Row | Compound | percentage of monomers ([1]; formulations of bevacizumab with AMP (1:153 by context), 14 days at 40° C., pH 7.0, n=3) | percentage of monomers ([1]; molar ratio bevacizumab:AMP 1:1.53, 14 days at 40° C., pH 7.0) | percentage of monomers ([1]; molar ratio bevacizumab:AMP 1:1.53, 28 days at 40° C., pH 7.0, n=3) | percentage of monomers ([1]; molar ratio bevacizumab:AMP 1:15.3, 14 days at 40° C., pH 7.0) | percentage of monomers ([1]; molar ratio bevacizumab:AMP 1:15.3, 28 days at 40° C., pH 7.0, n=3) | percentage of monomers ([1]; molar ratio bevacizumab:AMP 1:153, 28 days at 40° C., pH 7, n=3) | stabilizing effect versus Avastin® alone [3, 4] | stabilizing effect versus Avastin® alone [3, 5] | stabilizing properties, compared among ATP, GMP and sucrose phosphate ([3]; after 28 days of storage at 40° C.) | stabilization of the antibody (increase in monomers) versus Avastin® alone ([2]; Avastin®:AMP 1:10) | stabilization of the antibody (increase in monomers) versus Avastin® alone ([2]; Avastin®:AMP 1:100) | stabilization of Avastin® across molar ratios [3] | aggregation breaker strength in experiments ([3]; compared with AMP) | stabilizing effect versus Avastin® alone [3, 6] | stabilizing effect versus Avastin® alone ([3]; molar ratio 1:100, t28 (28 days at 40° C.)) | Short-term effects on the antibody, compared among ATP, GMP and sucrose phosphate [3]
4 | Nc1ncnc2c1ncn2[C@@H]1O[C@H](COP(=O)(O)OP(=O)(O)OP(=O)(O)O)[C@@H](O)[C@H]1O [ATP, adenosine 5′-triphosphate] | – | – | – | – | – | – | stabilizing effect is observed | stabilizing effect is observed | – | – | – | concentration dependent stabilization | less strong breaker than AMP | stabilizing effect is observed | significant stabilizing effect | most pronounced
